In ChEMBL document CHEMBL1151914, “3D-QSAR studies of 2,2-diphenylpropionates to aid discovery of novel potent muscarinic antagonists” (Bioorg Med Chem, 2009) one finds pKi data, which are given here for 23 molecules.

The test is described as follows: Inhibition of [3H]NMS binding to muscarinic receptor in mouse N4TG1 neuroblastoma cells.
Consider `C[n+]1cscc1C(C)(C)OC(=O)c1ccccc1`, for which the pKi (as a rule, −log10 of the Ki, conventionally taken in molar units) stood at 5.5.
`CN1CCC2CC1C[C@@H](OC(=O)C(C)(c1ccccc1)c1ccccc1)C2` (stereo partly drawn) yielded a pKi of 8.3.
In the case of `CC[N+]1(CCOC(=O)C(CO)c2ccccc2)CCCCC1` (stereo not drawn), the pKi turned out to be 8.7.
The molecule `CN1CCC(OC(=O)C(C)(c2ccccc2)c2ccccc2)CC1` registered a pKi of 8.8.
In turn, `CN1CC2CC1C[C@H](OC(=O)C(C)(c1ccccc1)c1ccccc1)C2` (stereo partly drawn) came in with a pKi of 8.3.
On to `CN1CCCC(COC(=O)C(C)(c2ccccc2)c2ccccc2)C1` (stereo not drawn), for which the negative logarithm of the Ki (pKi) worked out at 7.8.
The figure for `CN1CCC(COC(=O)C(C)(c2ccccc2)c2ccccc2)CC1` is 7.7; for `CC(C)N(COC(=O)c1ccc(N)cc1)C(C)C` it is 5.3.
The figure for `CN1CCCC1CCOC(=O)C(C)(c1ccccc1)c1ccccc1` (stereo not drawn) is 8.
In turn, `CC(C(=O)OCCN1CCCCC1)(c1ccccc1)c1ccccc1` showed a pKi of 8.2.
The figure for `CCN1CCC(OC(=O)C(C)(c2ccccc2)c2ccccc2)CC1` is 9; for `C[N+](C)(C)CCOC(=O)C(c1ccccc1)c1ccccc1` it is 7.1.
In turn, `CN1[C@@H]2CC[C@H]1C[C@@H](OC(=O)C(CO)c1ccccc1)C2` (stereo partly drawn) [ATROPINE] displayed a pKi of 8.4.
In turn, `CCN1CCC(COC(=O)C(C)(c2ccccc2)c2ccccc2)CC1` came in with a pKi of 6.9.
With `CC(C(=O)OCCN1CCCC1)(c1ccccc1)c1ccccc1`, the pKi is reported as 8.2.
Molecule `CN1CCC(OC(=O)C(C)(c2ccccc2)c2ccccc2)C1` (stereo not drawn) displayed a pKi of 7.8.
The figure for `CC[N+](C)(CC)CC(=O)Nc1ccc(Cl)c(Cl)c1` is above 3.33; for `CN1C2CC[C@H]1C[C@@H](OC(=O)C(C)(c1ccccc1)c1ccccc1)C2` it is 8.4; for `CCN1CCCC(OC(=O)C(C)(c2ccccc2)c2ccccc2)C1` (stereo not drawn) it is 6.3.
The figure for `CN1CCC(OC(=O)C(CO)c2ccc(C(F)(F)F)cc2)CC1` (stereo not drawn) is 7.7; for `C[N+](C)(C)CC#CC(O)(c1cccs1)C1CCCC1` (stereo not drawn) it is 7.1.
The value for `CN1CCCCC1COC(=O)C(C)(c1ccccc1)c1ccccc1` (stereo not drawn) was 6.8.
Molecule `CCN(CC)CCOC(=O)C(C)(c1ccccc1)c1ccccc1` [APROFENE] yielded a pKi of 8.2.
